Laboratory results from patent US20230141101A1, “PDE4 INHIBITOR COMPOUND AND MEDICAL USE THEREOF” (Suzhou Longbotai Pharmaceuticals Co., Ltd., priority 2020, published 2023).

Experiments:
Assay type in all cases: biochemical
Conditions in all cases: 20 nM
PDE4A1A = molecular target: T1, PDE4A1A (Homo sapiens, UniProt P27815); test: PDE4 inhibitory activity assay (FAM-cAMP enzymatic reaction), PDE4A1A
T1 construct: purchased BPS 60040
Summary of the method: (§1)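 Each isoform is incubated with test compound for 15 min at room temperature before FAM-cAMP substrate starts a 30-min reaction.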

PDE4B1 = molecular target: T2, PDE4B1 (Homo sapiens, UniProt Q07343); test: PDE4 inhibitory activity assay (FAM-cAMP enzymatic reaction), PDE4B1
T2 construct: purchased BPS 60041
Summary of the method: as §1

PDE4D2 = PDE4D2 (Homo sapiens, UniProt Q08499); test: PDE4 inhibitory activity assay (FAM-cAMP enzymatic reaction), PDE4D2
Summary of the method: as §1

T1 sequence (P27815 1-647 isoform P27815-4): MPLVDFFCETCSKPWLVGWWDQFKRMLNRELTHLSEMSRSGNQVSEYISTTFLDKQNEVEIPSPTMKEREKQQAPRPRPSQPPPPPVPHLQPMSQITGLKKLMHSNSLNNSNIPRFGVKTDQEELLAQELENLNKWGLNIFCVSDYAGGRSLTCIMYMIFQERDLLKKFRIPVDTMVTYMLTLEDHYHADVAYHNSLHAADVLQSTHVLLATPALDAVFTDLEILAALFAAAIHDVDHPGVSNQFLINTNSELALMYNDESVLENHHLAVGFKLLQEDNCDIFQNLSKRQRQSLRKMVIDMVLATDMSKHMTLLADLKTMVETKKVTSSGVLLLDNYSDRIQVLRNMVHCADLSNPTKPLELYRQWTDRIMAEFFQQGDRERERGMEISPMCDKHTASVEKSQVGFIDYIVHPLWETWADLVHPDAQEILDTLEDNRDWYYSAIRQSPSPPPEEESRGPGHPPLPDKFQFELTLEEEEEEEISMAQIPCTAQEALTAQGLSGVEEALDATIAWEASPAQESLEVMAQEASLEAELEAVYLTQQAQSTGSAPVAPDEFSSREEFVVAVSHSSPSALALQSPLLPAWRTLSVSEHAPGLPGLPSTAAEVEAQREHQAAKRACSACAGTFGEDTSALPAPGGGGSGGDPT
T2 sequence (Q07343 whole entry): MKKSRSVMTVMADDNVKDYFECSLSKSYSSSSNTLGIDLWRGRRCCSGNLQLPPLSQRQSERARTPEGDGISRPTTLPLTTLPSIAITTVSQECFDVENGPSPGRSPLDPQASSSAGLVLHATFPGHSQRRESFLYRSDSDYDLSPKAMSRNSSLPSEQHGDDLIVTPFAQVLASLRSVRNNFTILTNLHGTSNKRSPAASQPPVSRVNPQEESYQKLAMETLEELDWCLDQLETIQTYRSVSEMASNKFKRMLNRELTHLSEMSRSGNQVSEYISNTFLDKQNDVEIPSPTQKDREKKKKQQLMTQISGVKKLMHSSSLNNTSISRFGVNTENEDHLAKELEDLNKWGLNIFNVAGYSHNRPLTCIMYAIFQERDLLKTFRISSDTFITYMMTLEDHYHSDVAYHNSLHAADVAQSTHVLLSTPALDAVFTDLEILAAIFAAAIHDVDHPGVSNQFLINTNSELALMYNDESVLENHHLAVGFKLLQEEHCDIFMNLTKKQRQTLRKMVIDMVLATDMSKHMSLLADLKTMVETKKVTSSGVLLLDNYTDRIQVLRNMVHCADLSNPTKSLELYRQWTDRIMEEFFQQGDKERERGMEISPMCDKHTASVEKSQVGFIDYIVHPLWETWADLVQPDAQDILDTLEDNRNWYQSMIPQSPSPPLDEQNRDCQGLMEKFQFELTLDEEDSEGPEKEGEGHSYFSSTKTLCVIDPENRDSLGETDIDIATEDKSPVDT
PDE4D2, sequence (Q08499 303-809): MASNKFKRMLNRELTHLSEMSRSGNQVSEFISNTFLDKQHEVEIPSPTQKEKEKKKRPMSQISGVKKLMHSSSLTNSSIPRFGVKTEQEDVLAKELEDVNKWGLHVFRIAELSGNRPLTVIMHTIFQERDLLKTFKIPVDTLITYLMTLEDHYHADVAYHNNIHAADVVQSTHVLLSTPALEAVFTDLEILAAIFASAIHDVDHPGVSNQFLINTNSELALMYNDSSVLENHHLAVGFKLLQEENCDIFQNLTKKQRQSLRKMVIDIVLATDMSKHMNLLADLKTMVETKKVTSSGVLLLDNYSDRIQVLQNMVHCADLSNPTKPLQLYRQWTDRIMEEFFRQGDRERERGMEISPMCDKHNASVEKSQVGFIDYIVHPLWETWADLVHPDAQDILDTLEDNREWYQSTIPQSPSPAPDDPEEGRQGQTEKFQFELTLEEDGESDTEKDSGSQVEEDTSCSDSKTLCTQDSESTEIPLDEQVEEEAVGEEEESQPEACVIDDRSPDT

CCOc1nc([C@@H](CS(C)(=O)=O)n2c(=O)n(C)c3cc(-c4cc(C)ccc4C)ccc32)ccc1OC [Ex. 165, (S)-5-(2,5-dimethylphenyl)-1-(1-(6-ethoxy-5-methoxypyridin-2-yl)-2-(methylsulfonyl)ethyl)-3-methyl-1H-benzo[d]imidazol-2(3H)-one]
+: PDE4 A1 inhibitory effect at 20 nM (PDE4A1A) | PDE4 B1 inhibitory effect at 20 nM (PDE4B1) | PDE4 D2 inhibitory effect at 20 nM (PDE4D2)

CCOc1nc([C@@H](CS(C)(=O)=O)n2c(=O)[nH]c3cc(-c4cccc(C)c4C)ccc32)ccc1OC [Ex. 166, (S)-5-(2,3-dimethylphenyl)-1-(1-(6-ethoxy-5-methoxypyridin-2-yl)-2-(methylsulfonyl)ethyl)-1H-benzo[d]imidazol-2(3H)-one]
+: PDE4 A1 inhibitory effect at 20 nM (PDE4A1A) | PDE4 B1 inhibitory effect at 20 nM (PDE4B1) | PDE4 D2 inhibitory effect at 20 nM (PDE4D2)

CCOc1nc([C@@H](CS(C)(=O)=O)n2c(=O)n(C)c3cc(-c4cccc(C)c4C)ccc32)ccc1OC [Ex. 167, (S)-5-(2,3-dimethylphenyl)-1-(1-(6-ethoxy-5-methoxypyridin-2-yl)-2-(methylsulfonyl)ethyl)-3-methyl-1H-benzo[d]imidazol-2(3H)-one]
+: PDE4 A1 inhibitory effect at 20 nM (PDE4A1A) | PDE4 B1 inhibitory effect at 20 nM (PDE4B1) | PDE4 D2 inhibitory effect at 20 nM (PDE4D2)

CCOc1nc([C@@H](CS(C)(=O)=O)n2c(=O)[nH]c3cc(-c4c(C)cccc4C)ccc32)ccc1OC [Ex. 168, (S)-5-(2,6-dimethylphenyl)-1-(1-(6-ethoxy-5-methoxypyridin-2-yl)-2-(methylsulfonyl)ethyl)-1H-benzo[d]imidazol-2(3H)-one]
+: PDE4 A1 inhibitory effect at 20 nM (PDE4A1A) | PDE4 B1 inhibitory effect at 20 nM (PDE4B1) | PDE4 D2 inhibitory effect at 20 nM (PDE4D2)

CCOc1nc([C@@H](CS(C)(=O)=O)n2c(=O)[nH]c3cc(-c4ccc(F)cc4C)ccc32)ccc1OC [Ex. 169, (S)-5-(4-fluoro-2-methylphenyl)-1-(1-(6-ethoxy-5-methoxypyridin-2-yl)-2-(methylsulfonyl)ethyl)-1H-benzo[d]imidazol-2(3H)-one]
+: PDE4 A1 inhibitory effect at 20 nM (PDE4A1A) | PDE4 B1 inhibitory effect at 20 nM (PDE4B1) | PDE4 D2 inhibitory effect at 20 nM (PDE4D2)

CCOc1nc([C@@H](CS(C)(=O)=O)n2c(=O)n(C)c3cc(-c4ccc(F)cc4C)ccc32)ccc1OC [Ex. 170, (S)-5-(4-fluoro-2-methylphenyl)-1-(1-(6-ethoxy-5-methoxypyridin-2-yl)-2-(methylsulfonyl)ethyl)-3-methyl-1H-benzo[d]imidazol-2(3H)-one]
+: PDE4 A1 inhibitory effect at 20 nM (PDE4A1A) | PDE4 B1 inhibitory effect at 20 nM (PDE4B1) | PDE4 D2 inhibitory effect at 20 nM (PDE4D2)

CCOc1nc([C@@H](CS(C)(=O)=O)n2c(=O)n(C)c3cc(-c4cc(F)ccc4C)ccc32)ccc1OC [Ex. 172, (S)-5-(5-fluoro-2-methylphenyl)-1-(1-(6-ethoxy-5-methoxypyridin-2-yl)-2-(methylsulfonyl)ethyl)-3-methyl-1H-benzo[d]imidazol-2(3H)-one]
+: PDE4 A1 inhibitory effect at 20 nM (PDE4A1A) | PDE4 B1 inhibitory effect at 20 nM (PDE4B1) | PDE4 D2 inhibitory effect at 20 nM (PDE4D2)

CCOc1nc([C@@H](CS(C)(=O)=O)n2c(=O)[nH]c3cc(-c4cccc(F)c4C)ccc32)ccc1OC [Ex. 173, (S)-5-(3-fluoro-2-methylphenyl)-1-(1-(6-ethoxy-5-methoxypyridin-2-yl)-2-(methylsulfonyl)ethyl)-1H-benzo[d]imidazol-2(3H)-one]
+: PDE4 A1 inhibitory effect at 20 nM (PDE4A1A) | PDE4 B1 inhibitory effect at 20 nM (PDE4B1) | PDE4 D2 inhibitory effect at 20 nM (PDE4D2)

CCOc1nc([C@@H](CS(C)(=O)=O)n2c(=O)n(C)c3cc(-c4cccc(F)c4C)ccc32)ccc1OC [Ex. 174, (S)-5-(3-fluoro-2-methylphenyl)-1-(1-(6-ethoxy-5-methoxypyridin-2-yl)-2-(methylsulfonyl)ethyl)-3-methyl-1H-benzo[d]imidazol-2(3H)-one]
+: PDE4 A1 inhibitory effect at 20 nM (PDE4A1A) | PDE4 B1 inhibitory effect at 20 nM (PDE4B1) | PDE4 D2 inhibitory effect at 20 nM (PDE4D2)

CCOc1nc([C@@H](CS(C)(=O)=O)n2c(=O)[nH]c3cc(-c4cc(C)ccc4F)ccc32)ccc1OC [Ex. 175, (S)-5-(2-fluoro-5-methylphenyl)-1-(1-(6-ethoxy-5-methoxypyridin-2-yl)-2-(methylsulfonyl)ethyl)-1H-benzo[d]imidazol-2(3H)-one]
+: PDE4 A1 inhibitory effect at 20 nM (PDE4A1A) | PDE4 B1 inhibitory effect at 20 nM (PDE4B1) | PDE4 D2 inhibitory effect at 20 nM (PDE4D2)

CCOc1nc([C@@H](CS(C)(=O)=O)n2c(=O)n(C)c3cc(-c4cc(C)ccc4F)ccc32)ccc1OC [Ex. 176, (S)-5-(2-fluoro-5-methylphenyl)-1-(1-(6-ethoxy-5-methoxypyridin-2-yl)-2-(methylsulfonyl)ethyl)-3-methyl-1H-benzo[d]imidazol-2(3H)-one]
+: PDE4 A1 inhibitory effect at 20 nM (PDE4A1A) | PDE4 B1 inhibitory effect at 20 nM (PDE4B1) | PDE4 D2 inhibitory effect at 20 nM (PDE4D2)

CCOc1nc([C@@H](CS(C)(=O)=O)n2c(=O)[nH]c3cc(-c4cccc(C)c4F)ccc32)ccc1OC [Ex. 177, (S)-5-(2-fluoro-3-methylphenyl)-1-(1-(6-ethoxy-5-methoxypyridin-2-yl)-2-(methylsulfonyl)ethyl)-1H-benzo[d]imidazol-2(3H)-one]
+: PDE4 A1 inhibitory effect at 20 nM (PDE4A1A) | PDE4 B1 inhibitory effect at 20 nM (PDE4B1) | PDE4 D2 inhibitory effect at 20 nM (PDE4D2)

CCOc1nc([C@@H](CS(C)(=O)=O)n2c(=O)n(C)c3cc(-c4cccc(C)c4F)ccc32)ccc1OC [Ex. 178, (S)-5-(2-fluoro-3-methylphenyl)-1-(1-(6-ethoxy-5-methoxypyridin-2-yl)-2-(methylsulfonyl)ethyl)-3-methyl-1H-benzo[d]imidazol-2(3H)-one]
+: PDE4 A1 inhibitory effect at 20 nM (PDE4A1A) | PDE4 B1 inhibitory effect at 20 nM (PDE4B1) | PDE4 D2 inhibitory effect at 20 nM (PDE4D2)

CCOc1nc([C@@H](CS(C)(=O)=O)n2c(=O)[nH]c3cc(-c4ccc(C)cc4F)ccc32)ccc1OC [Ex. 179, (S)-5-(2-fluoro-4-methylphenyl)-1-(1-(6-ethoxy-5-methoxypyridin-2-yl)-2-(methylsulfonyl)ethyl)-1H-benzo[d]imidazol-2(3H)-one]
+: PDE4 A1 inhibitory effect at 20 nM (PDE4A1A) | PDE4 B1 inhibitory effect at 20 nM (PDE4B1) | PDE4 D2 inhibitory effect at 20 nM (PDE4D2)

CCOc1nc([C@@H](CS(C)(=O)=O)n2c(=O)n(C)c3cc(-c4ccc(C)cc4F)ccc32)ccc1OC [Ex. 180, (S)-5-(2-fluoro-4-methylphenyl)-1-(1-(6-ethoxy-5-methoxypyridin-2-yl)-2-(methylsulfonyl)ethyl)-3-methyl-1H-benzo[d]imidazol-2(3H)-one]
+: PDE4 A1 inhibitory effect at 20 nM (PDE4A1A) | PDE4 B1 inhibitory effect at 20 nM (PDE4B1) | PDE4 D2 inhibitory effect at 20 nM (PDE4D2)

CCOc1nc([C@@H](CS(C)(=O)=O)n2c(=O)[nH]c3cc(-c4cc(OC)ccc4F)ccc32)ccc1OC [Ex. 181, (S)-5-(2-fluoro-5-methoxyphenyl)-1-(1-(6-ethoxy-5-methoxypyridin-2-yl)-2-(methylsulfonyl)ethyl)-1H-benzo[d]imidazol-2(3H)-one]
+: PDE4 A1 inhibitory effect at 20 nM (PDE4A1A) | PDE4 B1 inhibitory effect at 20 nM (PDE4B1) | PDE4 D2 inhibitory effect at 20 nM (PDE4D2)

CCOc1nc([C@@H](CS(C)(=O)=O)n2c(=O)n(C)c3cc(-c4cc(OC)ccc4F)ccc32)ccc1OC [Ex. 182, (S)-5-(2-fluoro-5-methoxyphenyl)-1-(1-(6-ethoxy-5-methoxypyridin-2-yl)-2-(methylsulfonyl)ethyl)-3-methyl-1H-benzo[d]imidazol-2(3H)-one]
+: PDE4 A1 inhibitory effect at 20 nM (PDE4A1A) | PDE4 B1 inhibitory effect at 20 nM (PDE4B1) | PDE4 D2 inhibitory effect at 20 nM (PDE4D2)

CCOc1nc([C@@H](CS(C)(=O)=O)n2c(=O)[nH]c3cc(-c4cccc(OC)c4F)ccc32)ccc1OC [Ex. 183, (S)-5-(2-fluoro-3-methoxyphenyl)-1-(1-(6-ethoxy-5-methoxypyridin-2-yl)-2-(methylsulfonyl)ethyl)-1H-benzo[d]imidazol-2(3H)-one]
+: PDE4 A1 inhibitory effect at 20 nM (PDE4A1A) | PDE4 B1 inhibitory effect at 20 nM (PDE4B1) | PDE4 D2 inhibitory effect at 20 nM (PDE4D2)

CCOc1nc([C@@H](CS(C)(=O)=O)n2c(=O)[nH]c3cc(-c4ccc(OC)cc4F)ccc32)ccc1OC [Ex. 184, (S)-5-(2-fluoro-4-methoxyphenyl)-1-(1-(6-ethoxy-5-methoxypyridin-2-yl)-2-(methylsulfonyl)ethyl)-1H-benzo[d]imidazol-2(3H)-one]
+: PDE4 A1 inhibitory effect at 20 nM (PDE4A1A) | PDE4 B1 inhibitory effect at 20 nM (PDE4B1) | PDE4 D2 inhibitory effect at 20 nM (PDE4D2)

CCOc1nc([C@@H](CS(C)(=O)=O)n2c(=O)n(C)c3cc(-c4ccc(OC)cc4F)ccc32)ccc1OC [Ex. 185, (S)-5-(2-fluoro-4-methoxyphenyl)-1-(1-(6-ethoxy-5-methoxypyridin-2-yl)-2-(methylsulfonyl)ethyl)-3-methyl-1H-benzo[d]imidazol-2(3H)-one]
+: PDE4 A1 inhibitory effect at 20 nM (PDE4A1A) | PDE4 B1 inhibitory effect at 20 nM (PDE4B1) | PDE4 D2 inhibitory effect at 20 nM (PDE4D2)

CCOc1nc([C@@H](CS(C)(=O)=O)n2c(=O)[nH]c3cc(-c4cc(F)ccc4OC)ccc32)ccc1OC [Ex. 186, (S)-5-(5-fluoro-2-methoxyphenyl)-1-(1-(6-ethoxy-5-methoxypyridin-2-yl)-2-(methylsulfonyl)ethyl)-1H-benzo[d]imidazol-2(3H)-one]
+: PDE4 A1 inhibitory effect at 20 nM (PDE4A1A) | PDE4 B1 inhibitory effect at 20 nM (PDE4B1) | PDE4 D2 inhibitory effect at 20 nM (PDE4D2)
